Calls of active or inactive are those of the source. No cut-off for these calls is given here.
Legend:
Meloidogyne incognita [1] = assay: Insecticidal activity against second stage juveniles of Meloidogyne incognita (root-knot nematode) assessed as motility at 0.2 to 3.2 ug a.i/ml in methanol after 24 to 96 hr; type: functional, organism-based
Meloidogyne incognita [2] = assay: Insecticidal activity against second stage juveniles of Meloidogyne incognita (root-knot nematode) assessed as increase in immotile at 12.8 to 51.2 ug a.i/ml in methanol after 24 to 96 hr; type: functional, organism-based
[3] = Chemical stability of the compound after 4 days by HPLC analysis; type: physicochemical; conditions: 96 h
Meloidogyne incognita [4] = assay: Insecticidal activity against second stage juveniles of Meloidogyne incognita (root-knot nematode) assessed as increase in immotile at 51.2 ug a.i/ml in methanol after 48 to 96 hr; type: functional
Meloidogyne incognita [5] = assay: Insecticidal activity against second stage juveniles of Meloidogyne incognita (root-knot nematode) assessed as decrease of female nematodes in tomato roots at 0.03 to 30.72 ug/g after 30 days by pot bioassay; type: functional, organism-based
Meloidogyne incognita [6] = assay: Insecticidal activity against second stage juveniles of Meloidogyne incognita (root-knot nematode) assessed as motility at 0.2 to 3.2 ug a.i/ml in water after 24 to 96 hr; type: functional, organism-based
Meloidogyne incognita [7] = assay: Insecticidal activity against second stage juveniles of Meloidogyne incognita (root-knot nematode) assessed as motility at 0.2 ug a.i/ml in water after 24 to 96 hr; type: functional, organism-based
[8] = Chemical stability of the compound after 72 hr by HPLC analysis; type: physicochemical
Solanum lycopersicum [9] = assay: Phytotoxicity in Solanum lycopersicum (tomato) assessed as effect on shoot and root fresh weight at 0.03 to 30.72 ug/g after 24 hr; type: organism-based; conditions: in vivo
Solanum lycopersicum [10] = assay: Toxicity in Solanum lycopersicum (tomato) assessed as effect on shoot and root fresh weight at 0.03 to 30.72 ug/g after 24 hr; type: organism-based; conditions: in vivo
Meloidogyne incognita [11] = assay: Insecticidal activity against second stage juveniles of Meloidogyne incognita (root-knot nematode) assessed as increase in immotile at 12.8 to 51.2 ug a.i/ml in water after 24 to 96 hr; type: functional
Solanum lycopersicum [12] = assay: Toxicity in Solanum lycopersicum (tomato) assessed as effect on shoot and root fresh weight at 2 ug/g after 24 hr; type: organism-based; conditions: in vivo
Solanum lycopersicum [13] = assay: Phytotoxicity in Solanum lycopersicum (tomato) assessed as effect on shoot and root fresh weight at 2 ug/g after 24 hr; type: organism-based; conditions: in vivo
Meloidogyne incognita [14] = assay: Insecticidal activity against second stage juveniles of Meloidogyne incognita (root-knot nematode) assessed as decrease of female nematodes in tomato roots at 2 ug/g after 30 days by pot bioassay; type: functional, organism-based

SMILES: C/C=C(\C)C(=O)O[C@H]1C[C@@H](OC(C)=O)[C@@]2(C(=O)OC)CO[C@H]3[C@@H](O)[C@@](C)([C@]45O[C@@]4(C)[C@@H]4C[C@H]5O[C@@H]5OC=C[C@@]54O)[C@H]4[C@]1(CO[C@]4(O)C(=O)OC)[C@@H]32 (stereo in doubt; form 1)
- Activity (Meloidogyne incognita [1]): inactive
- Activity (Meloidogyne incognita [2]): Active

SMILES: C/C=C(\C)C(=O)O[C@H]1C[C@@H](OC(C)=O)[C@@]2(C(=O)OC)CO[C@H]3[C@@H](O)[C@@](C)([C@]45O[C@@]4(C)[C@@H]4C[C@H]5O[C@@H]5OC=C[C@@]54O)[C@H]4[C@]1(CO[C@]4(O)C(=O)OC)[C@@H]32 (stereo in doubt; form 1) [AZADIRACHTIN A]
- Activity [3]: 84%
- Activity (Meloidogyne incognita [4]): 11%

SMILES: C/C=C(\C)C(=O)O[C@H]1C[C@@H](OC(C)=O)[C@@]2(C(=O)OC)CO[C@H]3[C@@H](O)[C@@](C)([C@]45O[C@@]4(C)[C@@H]4C[C@H]5O[C@@H]5OC=C[C@@]54O)[C@H]4[C@]1(CO[C@]4(O)C(=O)OC)[C@@H]32 (stereo in doubt; form 2)
- Activity (Meloidogyne incognita [5]): inactive
- Activity (Meloidogyne incognita [6]): inactive
- Activity (Meloidogyne incognita [7]): inactive

SMILES: C/C=C(\C)C(=O)O[C@H]1C[C@@H](OC(C)=O)[C@@]2(C(=O)OC)CO[C@H]3[C@@H](O)[C@@](C)([C@]45O[C@@]4(C)[C@@H]4C[C@H]5O[C@@H]5OC=C[C@@]54O)[C@H]4[C@]1(CO[C@]4(O)C(=O)OC)[C@@H]32 (stereo in doubt; form 2) [AZADIRACHTIN A]
- Activity [3]: 88%
- Stability [8]: Stable
- Activity (Solanum lycopersicum [9]): Non-toxic
- Activity (Solanum lycopersicum [10]): Non-toxic
- Activity (Meloidogyne incognita [11]): 21%

SMILES: CCOP(=O)(SC(C)CC)N1CCSC1=O (stereo not given) [FOSTHIAZATE]
- Activity (Solanum lycopersicum [12]): Non-toxic
- Activity (Solanum lycopersicum [13]): Non-toxic
- Activity (Meloidogyne incognita [14]): Active
